{"source": "patent US12036226B2", "about": "“Methods of treating subjects having diabetes with chronic kidney disease” (Poxel SA, priority 2018, dated 2024)", "assay": "Phase 1 study of pharmacokinetics and safety of imeglimin in subjects with renal impairment compared to normal renal function", "type": "in vivo, human", "conditions": "for AUC: read-out: AUC0-τ", "method": "An open-label, parallel-group, multi-center, multiple oral dose study to investigate the pharmacokinetics of imeglimin in subjects with renal impairment compared to subjects with normal renal function was completed.\nIn this study, a total of 51 subjects received imeglimin at the daily dose of 1000 mg, administered either as 1000 mg QD (once a day) or 500 mg bid (twice a day) during 8 days. […] Twenty-four control subjects with normal renal function were matched to mild and moderate (10 receiving QD and 8 receiving bid regimen) and to severe (6 receiving bid regimen) renal impaired subjects. Measurement of the urine to plasma ratio of creatinine using 24 hours urine sampling was calculated (CLCrea).\nImeglimin was administered in the morning time during 8 consecutive days in the group of subjects receiving 1000 mg once a day and in the morning and evening time during 7 consecutive days followed by a morning administration of 500 mg in the morning time on Day 8 in the group of subjects receiving 500 mg twice a day. Morning administrations on Days 1 and 8 were performed on a fasted state, after a 10 hours overnight fasting and during 4 hours after imeglimin administration.\nInclusion Criteria: For subjects with normal renal functions: CLCrea>80 mL/min based on calculation using 24-hrs sampling on day −2. For subjects with impaired renal function: CLCrea 50 to 80 mL/min for subjects with mild renal impairment, 30 to <50 mL/min for subjects with moderate renal impairment, and <30 mL/min for subjects with severe renal impairment based on calculation using 24-hrs sampling on day −2.\nPharmacokinetic parameters included apparent volume of distribution during the terminal phase following extravascular administration (Vz/F), area under the curve of the plasma concentration as a function of time (AUC0-t), the maximum observed concentration (Cmax), the time to maximum concentration (tmax), the plasma half-life (t1/2), the total body clearance of drug from plasma following extravascular administration (CL/F), and other parameters.\nThe urinary excretion parameters of imeglimin in subjects with differing degrees of renal impairment following QD or bid oral doses of imeglimin on day 8 are summarized in Table 3 and Table 4. Parameters measured include amount of unchanged drug excreted in urine as a function of time (Ae0-t), renal clearance (CLR), and the amount of unchanged drug excreted in urine during one dosing interval (Ae0-τ), and the percentage of administered dose excreted in urine during one dosing interval (fe0-τ).\nFor the evaluation of safety and tolerability of multiple oral doses of 1000 mg imeglimin QD (i.e. a total dose of 8000 mg imeglimin) or 500 mg imeglimin BID (i.e. a total dose of 7500 mg imeglimin), laboratory tests (hematology, clinical chemistry, urinalysis), determination of vital signs, ECG recordings, questioning of AEs and physical examinations were performed. […] The incidence of AEs observed within the course of the study was low. Overall 31 out of 51 subjects reported 54 treatment emergent AEs. Of these, only 15 were judged as likely related to the study drug. The majority (39 AEs) were assessed as unlikely related. Based on these low incidence no clear differences between the dose regimens and between the renal impairment groups can be shown.", "key": {"[1]": {"conditions": "500 mg bid oral, Day 8, CKD Stage 2 (mild renal impairment) (N = 4), geometric mean (CV %)"}, "[2]": {"conditions": "500 mg bid oral, Day 8, CKD Stage 3 (moderate renal impairment) (N = 6), geometric mean (CV %)"}, "[3]": {"conditions": "500 mg bid oral, Day 8, CKD Stage 4 (severe renal impairment) (N = 5), geometric mean (CV %)"}, "[4]": {"conditions": "500 mg bid oral, Day 8, Part 1 CKD Stage 2 (mild renal impairment; N = 4), geometric mean"}, "[5]": {"conditions": "500 mg bid oral, Day 8, Part 1 CKD Stage 3 (moderate renal impairment; N = 6), geometric mean"}, "[6]": {"conditions": "500 mg bid oral, Day 8, Part 1 normal renal function (N = 8), geometric mean"}, "[7]": {"conditions": "500 mg bid oral, Day 8, Part 2 CKD Stage 4 (severe renal impairment; N = 5), geometric mean"}, "[8]": {"conditions": "500 mg bid oral, Day 8, Part 2 normal renal function (N = 6), geometric mean"}, "[9]": {"conditions": "500 mg bid oral, Day 8, normal renal function (N = 6), geometric mean (CV %)"}, "[10]": {"conditions": "500 mg bid oral, Day 8, normal renal function (N = 8), geometric mean (CV %)"}, "[11]": {"conditions": "1000 mg QD or 500 mg bid over 8 days, all groups"}, "[12]": {"conditions": "1000 mg QD oral, Day 8, CKD Stage 3 (moderate renal impairment) (N = 6), geometric mean"}, "[13]": {"conditions": "1000 mg QD oral, Day 8, CKD stage 2 (mild renal impairment; N = 5), geometric mean"}, "[14]": {"conditions": "1000 mg QD oral, Day 8, normal renal function (N = 10), geometric mean"}, "[15]": {"conditions": "human, plasma, po, 500 mg, 500 mg bid oral, Day 8, Part 1 CKD Stage 2 (mild renal impairment; N = 4), geometric mean"}, "[16]": {"conditions": "human, plasma, po, 500 mg, 500 mg bid oral, Day 8, Part 1 CKD Stage 3 (moderate renal impairment; N = 6), geometric mean"}}, "note": "Values joined by “and” are separate entries in the source; they are usually repeats but may differ in a detail not shown here. Equal values may be shown once. Read-outs that look alike come from different tables or passages of the source.", "data": [{"smiles": "C[C@H]1N=C(N(C)C)N=C(N)N1", "note": "[imeglimin, (6R)—N^2, N^2,6-trimethyl-3,6-dihydro-1,3,5-triazine-2,4-diamine]", "values": [{"measurement": "Ae0-t", "setting": "[1]", "result": "404 (16.4) mg"}, {"measurement": "Ae0-τ", "setting": "[1]", "result": "215 (11.5) mg"}, {"measurement": "feτ (fraction of dose excreted in urine, 12-hour dosing interval)", "setting": "[1]", "result": "43% and 42.9 (11.5) %"}, {"measurement": "Ae0-t", "setting": "[2]", "result": "328 (22.6) mg"}, {"measurement": "Ae0-τ", "setting": "[2]", "result": "199 (29.1) mg"}, {"measurement": "feτ (fraction of dose excreted in urine, 12-hour dosing interval)", "setting": "[2]", "result": "40% and 39.8 (29.1) %"}, {"measurement": "Ae0-t", "setting": "[3]", "result": "357 (25.5) mg"}, {"measurement": "Ae0-τ", "setting": "[3]", "result": "209 (15.6) mg"}, {"measurement": "feτ (fraction of dose excreted in urine, 12-hour dosing interval)", "setting": "[3]", "result": "42% and 41.8 (15.6) %"}, {"measurement": "CL/F", "setting": "[4]", "result": 754, "unit": "mL/min"}, {"measurement": "Cpre", "setting": "[4]", "result": 572, "unit": "ng/mL"}, {"measurement": "CL/F", "setting": "[5]", "result": 485, "unit": "mL/min"}, {"measurement": "Cmin", "setting": "[5]", "result": 808, "unit": "ng/mL"}, {"measurement": "Cpre", "setting": "[5]", "result": 996, "unit": "ng/mL"}, {"measurement": "CL/F", "setting": "[6]", "result": 1128, "unit": "mL/min"}, {"measurement": "Cpre", "setting": "[6]", "result": 254, "unit": "ng/mL"}, {"measurement": "CL/F", "setting": "[7]", "result": 336, "unit": "mL/min"}, {"measurement": "Cmin", "setting": "[7]", "result": 1211, "unit": "ng/mL"}, {"measurement": "Cpre", "setting": "[7]", "result": 1335, "unit": "ng/mL"}, {"measurement": "CL/F", "setting": "[8]", "result": 1195, "unit": "mL/min"}, {"measurement": "Cmin", "setting": "[8]", "result": 169, "unit": "ng/mL"}, {"measurement": "Cpre", "setting": "[8]", "result": 209, "unit": "ng/mL"}, {"measurement": "Ae0-t", "setting": "[9]", "result": "298 (30.6) mg"}, {"measurement": "Ae0-τ", "setting": "[9]", "result": "229 (25.3) mg"}, {"measurement": "feτ (fraction of dose excreted in urine, 12-hour dosing interval)", "setting": "[9]", "result": "45.9 (25.3) %"}, {"measurement": "Ae0-t", "setting": "[10]", "result": "307 (37.7) mg"}, {"measurement": "Ae0-τ", "setting": "[10]", "result": "222 (22.6) mg"}, {"measurement": "feτ (fraction of dose excreted in urine, 12-hour dosing interval)", "setting": "[10]", "result": "44.4 (22.6) %"}, {"measurement": "number of treatment emergent AEs", "setting": "[11]", "result": 54}, {"measurement": "subjects reporting treatment emergent AEs", "setting": "[11]", "result": "31 out of 51 subjects"}, {"measurement": "Ae0-t (unchanged drug excreted in urine)", "setting": "[12]", "result": 453, "unit": "mg"}, {"measurement": "Ae0-τ", "setting": "[12]", "result": 345, "unit": "mg"}, {"measurement": "CL/F", "setting": "[12]", "result": 573, "unit": "mL/min"}, {"measurement": "Cpre", "setting": "[12]", "result": 382, "unit": "ng/mL"}, {"measurement": "feτ (percentage of dose excreted in urine during one dosing interval)", "setting": "[12]", "result": 34.5, "unit": "%"}, {"measurement": "CL/F", "setting": "[13]", "result": 828, "unit": "mL/min"}, {"measurement": "Cpre", "setting": "[13]", "result": 181, "unit": "ng/mL"}, {"measurement": "Ae0-t (unchanged drug excreted in urine)", "setting": "[14]", "result": 460, "unit": "mg"}, {"measurement": "Ae0-τ", "setting": "[14]", "result": 386, "unit": "mg"}, {"measurement": "CL/F", "setting": "[14]", "result": 1082, "unit": "mL/min"}, {"measurement": "Cav", "setting": "[14]", "result": 642, "unit": "ng/mL"}, {"measurement": "Cpre", "setting": "[14]", "result": 136, "unit": "ng/mL"}, {"measurement": "feτ (percentage of dose excreted in urine during one dosing interval)", "setting": "[14]", "result": 38.6, "unit": "%"}, {"measurement": "QRS-, QT intervals and corrected QTc-intervals (Bazett, Fridericia)", "setting": "ECG recordings", "result": "did not reveal any relevant changes"}, {"measurement": "vital signs", "setting": "following the administration of imeglimin", "result": "did not show any clinically relevant changes"}, {"measurement": "clinical laboratory parameters", "setting": "human, in vivo", "result": "no significant abnormality observed"}, {"measurement": "half-life", "setting": "human, plasma, oral, across groups", "result": "13 to 26", "unit": "h"}, {"measurement": "Tmax", "setting": "human, plasma, oral, post-dose, across renal function groups and time, read-out: Median Tmax", "result": "3.5 to 5", "unit": "h"}, {"measurement": "Cmax", "setting": "[15]", "result": 1320, "unit": "ng/mL"}, {"measurement": "half-life", "setting": "[15]", "result": 26.1, "unit": "h"}, {"measurement": "AUC", "setting": "[15]", "result": 11100, "unit": "ng·h/mL"}, {"measurement": "concentration at 8 day", "setting": "human, plasma, po, 500 mg, 500 mg bid oral, Day 8, Part 1 CKD Stage 2 (mild renal impairment; N = 4), geometric mean, read-out: Cav", "result": 921, "unit": "ng/mL"}, {"measurement": "concentration at 8 day", "setting": "human, plasma, po, 500 mg, 500 mg bid oral, Day 8, Part 1 CKD Stage 2 (mild renal impairment; N = 4), geometric mean, read-out: Cmin", "result": 459, "unit": "ng/mL"}, {"measurement": "Vd/F", "setting": "human, plasma, po, 500 mg, 500 mg bid oral, Day 8, Part 1 CKD Stage 2 (mild renal impairment; N = 4), geometric mean, read-out: Vz/F", "result": 1700, "unit": "L"}, {"measurement": "Tmax", "setting": "human, plasma, po, 500 mg, 500 mg bid oral, Day 8, Part 1 CKD Stage 2 (mild renal impairment; N = 4), median, read-out: tmax", "result": 4, "unit": "h"}, {"measurement": "Cmax", "setting": "[16]", "result": 2000, "unit": "ng/mL"}, {"measurement": "half-life", "setting": "[16]", "result": 21.9, "unit": "h"}, {"measurement": "AUC", "setting": "[16]", "result": 17200, "unit": "ng·h/mL"}]}]}
